Experiment [1] concerns the target T1, SlyD^WT IF (chaperone) domain (Thermus thermophilus, UniProt Q5SLE7).
T1 sequence (Q5SLE7 70-117): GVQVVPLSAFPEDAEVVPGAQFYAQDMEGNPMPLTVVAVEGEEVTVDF
Briefly: biochemical. The format is binding. As for the experimental part: (§1) ITC was measured using MicroCal VP-ITC calorimeter (Malvern) and analysed with MicroCal ITC-ORIGIN Analysis Software. First 1 × 3 µl and then 42 × 6.5 µl of 1.2 mM peptides dissolved in 20 mM HEPES (pH 7.5) and 100 mM NaCl were injected every 240 s from the syringe into the cell containing 50 µM SlyD at 25 °C. The resulting isotherms were fitted with one binding site model in case of SlyDΔIF construct and with two binding site model in case of the wild-type SlyD.

Experiment [2] addresses T2, SlyDΔIF (Thermus thermophilus, UniProt Q5SLE7). Briefly: Label-free 1H NMR lineshape prolyl isomerase activity assay with SlyDΔIF. The format is biochemical. As to conditions: 1H NMR lineshape analysis, 100 µM peptide, 0 to 6 µM enzyme, 25 °C, 20 mM HEPES, 100 mM NaCl, pH 7.5; linear regression of exchange rate vs enzyme concentration; technical triplicates; error one standard deviation. The procedure: (§2) ^1H NMR spectra of 100 µM peptide samples in 20 mM HEPES, 100 mM NaCl, pH 7.5 were acquired on a Bruker Avance III NMR-spectrometer at 25 °C and different concentrations of enzyme (0 to 6 µM). Samples contained 10% (v/v) D2O and 0.5 mM TCEP. Spectra have been corrected by subtracting identically measured and processed spectra of enzyme only samples, in order to rule out any influence of signals from the enzymes. Spectra were processed using Topspin (Bruker, Inc) and analyzed in MATLAB (mathworks). […] The obtained relative line broadening of the cis and trans signals of methyl group I, is caused by chemical exchange between the two forms and depends on the population of the cis and trans forms, their chemical shift difference (which are both known from experiments without enzyme) and the apparent exchange rate which was derived from the fit. Errors in the fitted parameters were estimated using Monte-Carlo simulations; the reported errors correspond to one standard deviation.
(§3) Tetrapeptides terminally fused with fluorophores sensitive to proline isomerization have been routinely used to study the activity of peptidyl-prolyl cis–trans isomerases, such as SlyD [11]. […] Studying longer peptides usually requires 2D NMR spectroscopy, often in combination with ^13C labeling, in order to detect separate signals for the cis and trans state. […] This approach, which was initially developed for chemically modified tetrapeptides, relies only on the interaction of a leucine residue upstream of the proline (i − 1) and a phenylalanine residue downstream of the proline (i + 1). The different orientations of the leucine and phenylalanine residues in cis and trans proline conformations give rise to different signals for one of the leucine methyl groups (I), while the other methyl group (II) is mostly unaffected (Fig. 2A). At the same time, the impact of the proline cis/trans conformation on the leucine methyl groups is not dependent on the length of the peptide. The only requirement for the design of the peptide substrate is the absence of additional leucine, isoleucine or valine residues that could interfere with the NMR signals of interest. The linewidth of the signals is affected by the enzymatic turnover rate, which itself is dependent on the enzyme concentration (Fig. 2A). The enzymatic activity (kcat/KM) is then determined by the linear regression of the determined rate at various enzyme concentrations at a fixed substrate concentration below KM (Fig. 2B and SI Fig. 1).

Experiment [3] has as its system SlyD^WT FKBP (PPIase) domain. The experiment is described as follows: biochemical. In kind it is binding, Thermus thermophilus. As to conditions: ITC, SlyD^WT and SlyDΔIF. The procedure:
as §1

Experiment [4] addresses T3, SlyD^WT FKBP (PPIase) domain (Thermus thermophilus, UniProt Q5SLE7).
T3 sequence (Q5SLE7 1-149): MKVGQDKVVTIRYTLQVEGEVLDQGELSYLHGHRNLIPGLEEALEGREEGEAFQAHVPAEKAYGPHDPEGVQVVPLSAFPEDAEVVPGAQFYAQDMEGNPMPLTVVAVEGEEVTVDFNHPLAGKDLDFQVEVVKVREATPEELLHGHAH
The experiment is described as follows: biochemical. The format is binding. As for the experimental part:
as §1

In the next experiment the test system is SlyD^WT. Briefly: Label-free 1H NMR lineshape prolyl isomerase activity assay with SlyD^WT. The conditions noted are these: for kcat/KM (SlyD^WT): 1H NMR lineshape analysis, 100 µM peptide, 0 to 6 µM enzyme, 25 °C, 20 mM HEPES, 100 mM NaCl, pH 7.5, linear regression of exchange rate vs enzyme concentration, technical triplicates, error one standard deviation. In kind it is biochemical, Thermus thermophilus. As for the experimental part:
as §2, §3

The target in experiment [5] is T2, SlyDΔIF. Briefly: ITC, peptide binding to SlyDΔIF (one binding site model). The conditions noted are these: read-out: KD (SlyDΔIF), 1.2 mM peptide into 50 µM SlyD, 25 °C, 20 mM HEPES pH 7.5, 100 mM NaCl, ± error of fit. As for the experimental part:
as §1
Background: In ITC the heat of successive injections is recorded.

Ends that are not written are not given here.

As for H-TRYWNAKMLPFAEGA-OH [F13E], the equilibrium dissociation constant (Kd) (usually a measure of binding affinity in units of concentration) was 1.15 ± 0.01 µM in experiment [1], 10.4 ± 0.5 µM in experiment [4] and 36.1 ± 0.8 µM at SlyDΔIF [5]. Also, the “kcat/KM (SlyDΔIF)” value on SlyDΔIF [2] came to 100000 ± 100000 M⁻¹ s⁻¹. In experiment [3], the “reduction in affinity compared to the psWT peptide” value is on record as “up to fivefold”. Further, the “kcat/KM (SlyD^WT)” value with SlyD^WT amounted to 7e+06 ± 600000 M⁻¹ s⁻¹.

On to “R2A: psWT peptide substrate with mutation R2A (TAYWNAKMLPFAFGA)”, for which the “kcat/KM (SlyDΔIF)” value in the experiment with SlyDΔIF [2] was determined as 1.3e+06 ± 200000 M⁻¹ s⁻¹. For the same substance, the “kcat/KM (SlyD^WT)” value with SlyD^WT is 5.1e+06 ± 300000 M⁻¹ s⁻¹.

Turning to TRYWNAKALPFAFGA [M8A], the Kd was found to be 0.24 ± 0.01 µM in experiment [1], 6 ± 0.1 µM in experiment [4] and 19.4 ± 1 µM on SlyDΔIF [5]. The “kcat/KM (SlyDΔIF)” value at SlyDΔIF [2] turned out to be 3.1e+06 ± 100000 M⁻¹ s⁻¹. In the experiment on SlyD^WT, the “kcat/KM (SlyD^WT)” value was determined as 7.7e+06 ± 900000 M⁻¹ s⁻¹.

Consider H-TRYENAKMLPFAFGA-OH [W4E], for which the Kd in experiment [1] was 0.86 ± 0.02 µM; in experiment [4], 13.9 ± 0.9 µM. Moreover, the “kcat/KM (SlyDΔIF)” value on SlyDΔIF [2] came to 900000 ± 200000 M⁻¹ s⁻¹. The “reduction in affinity compared to the psWT peptide” value in experiment [3] is “up to fivefold”. In addition, the “kcat/KM (SlyD^WT)” value with SlyD^WT came out at 4.4e+06 ± 200000 M⁻¹ s⁻¹.

For TRYANAKMLPFAFGA [W4A], the figures for the dissociation constant Kd in experiment [1] and in experiment [4] were 0.75 ± 0.06 µM and 8.4 ± 0.4 µM, respectively. The “kcat/KM (SlyDΔIF)” value on SlyDΔIF [2] amounted to 1.1e+06 ± 200000 M⁻¹ s⁻¹. Further, the “kcat/KM (SlyD^WT)” value in the experiment on SlyD^WT is 2e+06 ± 200000 M⁻¹ s⁻¹.

For the substance H-TRYKNAKMLPFAFGA-OH [W4K], the Kd in experiment [1] came out at 0.21 ± 0.01 µM; in experiment [4], 3.2 ± 0.3 µM; on SlyDΔIF [5], 12.6 ± 0.8 µM. At SlyDΔIF [2], the “kcat/KM (SlyDΔIF)” value turned out to be 3.5e+06 ± 700000 M⁻¹ s⁻¹. The “kcat/KM (SlyD^WT)” value in the experiment with SlyD^WT amounted to 2.2e+06 ± 300000 M⁻¹ s⁻¹.

With H-TRYWNAKMLPFAKGA-OH [F13K], the dissociation constant Kd in experiment [1] is 0.11 ± 0.02 µM; in experiment [4], 5.2 ± 0.2 µM; on SlyDΔIF [5] it was 20 ± 0.7 µM. Also, the “kcat/KM (SlyDΔIF)” value on SlyDΔIF [2] came out at 2.3e+06 ± 300000 M⁻¹ s⁻¹. Also, the “kcat/KM (SlyD^WT)” value in the experiment on SlyD^WT was found to be 3.4e+06 ± 100000 M⁻¹ s⁻¹.

Take TRYWNAKMLPFAAGA [F13A]: the values for the dissociation constant (Kd) (in experiment [1]; in experiment [4]; at SlyDΔIF [5]) were 0.38 ± 0.02 µM, 6.4 ± 0.3 µM and 22.7 ± 0.6 µM, respectively. Also, the “kcat/KM (SlyDΔIF)” value at SlyDΔIF [2] came out at 400000 ± 100000 M⁻¹ s⁻¹. Also, the “kcat/KM (SlyD^WT)” value in the experiment with SlyD^WT worked out at 3.1e+06 ± 100000 M⁻¹ s⁻¹.

As to TRYWNAKMLPFAFGA [psWT], the equilibrium dissociation constant (Kd) amounted to 0.22 ± 0.01 µM in experiment [1], 3.5 ± 0.1 µM in experiment [4] and 15.6 ± 0.2 µM on SlyDΔIF [5]. Also, the “kcat/KM (SlyDΔIF)” value at SlyDΔIF [2] stood at 2.2e+06 ± 300000 M⁻¹ s⁻¹. Further, in the experiment on SlyD^WT, the “kcat/KM (SlyD^WT)” value came to 4.9e+06 ± 300000 M⁻¹ s⁻¹. Further, the “increase of activity by the chaperone domain (factor, SlyD^WT vs SlyDΔIF)” value with SlyD^WT (15-residue peptide at 100 µM, chaperone domain occupied) turned out to be 2.2.

On to H-TRYWNAKMLPFAFMA-OH [G14M], for which the results for the Kd (in experiment [1]; in experiment [4]; at SlyDΔIF [5]) were 0.1 ± 0.01 µM, 2.2 ± 0.1 µM and 8.3 ± 0.5 µM, respectively.

For the substance H-TRYWNAKMLPFAFGL-OH [A15L], the figures for the Kd (in experiment [1]; in experiment [4]; on SlyDΔIF [5]) were 0.16 ± 0.02 µM, 4.1 ± 0.1 µM and 14.8 ± 0.2 µM, respectively.

TRAWNAKMLPFAFGA [Y3A]: the figures for the dissociation constant Kd (in experiment [1]; in experiment [4]; on SlyDΔIF [5]) were 0.72 ± 0.1 µM, 17.3 ± 1.3 µM and 51.5 ± 8.6 µM, respectively. Also, on SlyDΔIF [2], the “kcat/KM (SlyDΔIF)” value was determined as 2.5e+06 ± 300000 M⁻¹ s⁻¹. In addition, in the experiment with SlyD^WT, the “kcat/KM (SlyD^WT)” value came to 3.9e+06 ± 400000 M⁻¹ s⁻¹.

The values are drawn from article PMC8858294, “Impact of distant peptide substrate residues on enzymatic activity of SlyD” (Cellular and Molecular Life Sciences: CMLS, 2022).
